Like-named read-outs stand apart in the source and are kept apart here. One block for each substance: values may come before it. Bridges are numbered along the chain shown (N, C = ends). Where no end group is shown, it is not given here.
What was measured:
human MC1R [1] = molecular target: T1, human MC1R (Homo sapiens, UniProt Q01726); assay: Eu-NDP-MSH displacement binding assay, MC1R
human MC4R = human MC4R (Homo sapiens, UniProt P32245); assay: Eu-NDP-MSH displacement binding assay, MC4R
human MC1R [2] = molecular target: T1, human MC1R; details: at high concentration, printed in the Ki column, cited from earlier work
[3] = molecular target: human melanocortin receptor MC1R (Homo sapiens, UniProt Q01726); format: cell-based; details: absence of NDP-MSH; basal response taken as zero; HEK-293 cells with human MC1R
Sequence of human melanocortin receptor MC1R (Q01726 whole entry): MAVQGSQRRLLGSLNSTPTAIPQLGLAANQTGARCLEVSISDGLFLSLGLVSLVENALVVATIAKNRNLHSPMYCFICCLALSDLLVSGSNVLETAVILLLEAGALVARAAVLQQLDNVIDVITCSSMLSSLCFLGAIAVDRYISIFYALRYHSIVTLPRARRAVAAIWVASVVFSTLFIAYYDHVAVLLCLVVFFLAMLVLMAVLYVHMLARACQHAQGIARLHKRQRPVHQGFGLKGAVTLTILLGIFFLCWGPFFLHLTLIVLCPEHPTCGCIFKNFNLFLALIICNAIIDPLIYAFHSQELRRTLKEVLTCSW

T1 sequence (Q01726 whole entry): as above
Sequence of human MC4R (P32245 whole entry): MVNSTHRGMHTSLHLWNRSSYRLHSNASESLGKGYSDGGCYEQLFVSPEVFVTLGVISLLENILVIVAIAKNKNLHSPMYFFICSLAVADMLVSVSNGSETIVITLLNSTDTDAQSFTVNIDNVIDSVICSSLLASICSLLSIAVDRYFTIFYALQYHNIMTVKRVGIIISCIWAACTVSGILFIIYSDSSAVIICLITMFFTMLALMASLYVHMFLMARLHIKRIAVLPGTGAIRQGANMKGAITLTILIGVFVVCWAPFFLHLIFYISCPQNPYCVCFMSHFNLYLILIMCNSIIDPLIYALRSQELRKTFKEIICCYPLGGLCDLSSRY

- Ki (human MC1R [1]): 4.9 ± 1.1 nM
- MC1R fold diff. (human MC1R [1]; fold difference of MC1R Ki relative to ASIP [chi(+1 +1 +1)]): 7.0
- Ki (human MC4R): 2.1 ± 0.3 nM
- MC4R fold diff. (human MC4R; fold difference of MC4R Ki relative to ASIP [chi(+1 +1 +1)]): 1.6
Substance: Ac-KKVVRPRTPLSAPCVATRNSCKPPAPACCDPCASCYCRFFNAFCYCRVLSLNC-NH2 (disulfide 14-29, 21-35, 28-46, 32-53, 37-44) [chi(+1 −1 +1)]

Substance: CVRLHESCLGQQVPCCDPAATCYCRFFNAFCYCR (also: bicyclic or more (positions not given here)) [chi(−1 −1 0)]
- MC1R suppression of NDP-MSH binding (partial displacement of agonist) (human MC1R [2]): 26%

- Effect on cAMP production at MC1R (functional class) [3]: agonists
Substance: CVRLHESCLGQQVPCCDPAATCYCRFFRSACYCR (also: bicyclic or more (positions not given here)) [chi(−1 +1 0)]

Substance: CVRLHESCLGQQVPCCDPCATCYCRFFNAFCYCRKLGTAMNPCSRT (bicyclic or more) [AgRP [chi(−1 −1 −1)], reference compound]
- MC1R suppression of NDP-MSH binding (partial displacement of agonist) (human MC1R [2]): 47%
- MC1R suppression of NDP-MSH binding (partial displacement of agonist) (human MC1R [2]; listed as chi(−1 −1 −1)): 47%
